The subject of one assay is A1 receptor. The settings on record: literature, in words; cited from earlier work.
The target in another assay is T1, adenosine A1 receptor (Rattus norvegicus, UniProt P25099).
T1 construct: from tissue
T1 sequence (P25099 1-326): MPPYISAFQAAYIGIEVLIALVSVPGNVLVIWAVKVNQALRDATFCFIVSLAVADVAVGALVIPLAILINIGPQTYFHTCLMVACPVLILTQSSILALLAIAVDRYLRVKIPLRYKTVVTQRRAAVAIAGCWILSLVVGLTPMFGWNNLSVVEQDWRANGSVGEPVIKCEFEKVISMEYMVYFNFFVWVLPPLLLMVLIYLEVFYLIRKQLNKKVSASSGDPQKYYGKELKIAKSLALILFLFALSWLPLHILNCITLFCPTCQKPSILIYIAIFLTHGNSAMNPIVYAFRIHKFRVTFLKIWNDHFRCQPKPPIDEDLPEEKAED
Description: In vitro binding to adenosine A1 receptor, radioligand [^3 H]-(R)-PIA. The following applies: single determinations only; for Ki: [^3 H]-(R)-PIA radioligand; for Ratio A2 /A1: ratio of A2 Ki to A1 Ki. The source says: (§1) Evaluation of in vitro binding to adenosine A1 and A2 receptors
(§2) The methods used are described fully in European Journal of Pharmacology, 1993, 242, 221-228.

The target in the next assay is T2, A2 receptor (Rattus norvegicus, UniProt P30543).
T2 construct: from tissue
T2 sequence (P30543 whole entry): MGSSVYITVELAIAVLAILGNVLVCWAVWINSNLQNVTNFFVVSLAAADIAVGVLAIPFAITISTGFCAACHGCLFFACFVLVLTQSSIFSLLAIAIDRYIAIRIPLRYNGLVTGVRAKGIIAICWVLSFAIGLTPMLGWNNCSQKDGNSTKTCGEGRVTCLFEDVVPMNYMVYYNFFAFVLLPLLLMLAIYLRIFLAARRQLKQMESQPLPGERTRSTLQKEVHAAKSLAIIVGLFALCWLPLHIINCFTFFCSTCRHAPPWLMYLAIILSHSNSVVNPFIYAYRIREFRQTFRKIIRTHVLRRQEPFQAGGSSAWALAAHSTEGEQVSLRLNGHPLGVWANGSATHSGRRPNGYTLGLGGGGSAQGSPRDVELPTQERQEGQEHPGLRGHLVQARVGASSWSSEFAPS
Description: In vitro binding to adenosine A2 receptor, radioligand [^3 H]-CGS 21680. The settings on record: [^3 H]-CGS 21680 radioligand; single determinations only.
Source text: as §1, §2

As for `OC[C@H]1O[C@@H](n2cnc3c(NC4CCCC4)nc(Cl)nc32)[C@H](O)[C@@H]1O` [CCPA, 2-chloro-N-cyclopentyladenosine], the “selectivity for the A1 receptor over the A2 receptor” value in the assay with A1 receptor is “most selective for the A1 receptor over the A2 receptor”.

Regarding `Cc1nnc(SC[C@@H](C)Nc2nc(Cl)nc3c2ncn3[C@@H]2O[C@H](CO)[C@@H](O)[C@H]2O)s1` [Example 3, 2-Chloro-N-{(R)-1-[5-methyl-(1,3,4-thiadiazol-2-yl)]thio-2-propyl}adenosine], the Ki (usually a measure of affinity in units of concentration, obtained from inhibition or displacement) was 9 nM on adenosine A1 receptor and 990 nM on A2 receptor. Further, the “Ratio A2 /A1” value on adenosine A1 receptor came to 110.

As to `C[C@H](CSc1nc2ccccc2s1)Nc1nc(F)nc2c1ncn2[C@@H]1O[C@H](CO)[C@@H](O)[C@H]1O` [Example 13, N-[(R)-1-(2-Benzothiazolyl)thio-2-propyl]-2-fluoroadenosine], the Ki on adenosine A1 receptor came to 3.4 nM; on A2 receptor it was 2570 nM. Moreover, at adenosine A1 receptor, the “Ratio A2 /A1” value was 756.

Consider `CC[C@H](CSc1nc2ccccc2s1)Nc1nc(Cl)nc2c1ncn2[C@@H]1O[C@H](CO)[C@@H](O)[C@H]1O` [Example 15, N-[(R)-1-(2-Benzothiazolyl)thio-2-butyl]-2-chloroadenosine], for which the figures for the inhibition constant (Ki) at adenosine A1 receptor and on A2 receptor were 7 nM and 950 nM, respectively. Also, the “Ratio A2 /A1” value on adenosine A1 receptor is reported as 136.

Regarding `C[C@H](CSc1nc2cc(Cl)ccc2s1)Nc1nc(Cl)nc2c1ncn2[C@@H]1O[C@H](CO)[C@@H](O)[C@H]1O` [Example 22, 2-Chloro-N-[(R)-1-(5-chloro-2-benzothiazolyl)thio-2-propyl]adenosine], at adenosine A1 receptor, the inhibition constant (Ki) turned out to be 10 nM and the “Ratio A2 /A1” value came to 100. In addition, affinity at A2 receptor was put at a Ki of 1000 nM.

Turning to `C[C@H](CSc1cccs1)Nc1nc(Cl)nc2c1ncn2[C@@H]1O[C@H](CO)[C@@H](O)[C@H]1O` [Example 23, 2-Chloro-N-[(R)-1-(2-thienyl)thio-2-propyl]adenosine], on adenosine A1 receptor, the inhibition constant (Ki) is 4.5 nM and the “Ratio A2 /A1” value is given as 38. This compound also had a Ki on A2 receptor of 170 nM.

Consider `C[C@H](CSc1n[nH]c(-c2ccccc2)n1)Nc1nc(Cl)nc2c1ncn2[C@@H]1O[C@H](CO)[C@@H](O)[C@H]1O` [Example 27, 2-Chloro-N-{(R)-1-[5-phenyl-(1,2,4-triazol-3-yl)]thio-2-propyl}adenosine], for which the inhibitory constant (Ki) on adenosine A1 receptor is 14 nM; on A2 receptor it was 4970 nM. At adenosine A1 receptor, the “Ratio A2 /A1” value worked out at 355.

(Values after US5683989A, “Treatment of ischemias by administration of 2,N^6 -substituted adenosines” (Novo Nordisk A/S, priority 1995, dated 1997).)
